Reference: PMC9137581, “Identification of a Novel Class of Anti-Melanogenic Compounds, (Z)-5-(Substituted benzylidene)-3-phenyl-2-thioxothiazolidin-4-one Derivatives, and Their Reactive Oxygen Species Scavenging Activities” (Antioxidants, 2022)
Where two headings read alike, the source gives them in different places.

What was measured:
[1] = test system: UVB-irradiated HRM2 hairless mice; parameters: method as in PMID 30554432; details: ref [31]; cited from earlier work
[2] = target: mushroom tyrosinase; details: read-out: IC50 against mushroom tyrosinase, cited from earlier work
[3] = ABTS free radical scavenging activity assay; details: 100 µM, 2 min in the dark
Procedure: ABTS free radical scavenging activity was used to evaluate the antioxidant activities of analogs 1–13, as previously described. […] This ABTS free radical solution was then diluted with absolute methanol to an absorbance of 0.70 ± 0.02 at 734 nm. Aliquots (10 µL) of the test samples (10% DMSO + 90% EtOH) were added at a final concentration of 100 µM to 90 µL of the diluted ABTS free radical solution and incubated for 2 min in the dark at room temperature. Absorbances were then measured at 734 nm using a VersaMax™ microplate reader (Molecular Devices, Sunnyvale, CA, USA). The ABTS free radical scavenging activities of the test analogs were calculated using the following formula:Scavenging activity (%) = (Ac − As) × 100/Ac where Ac is the optical density of the non-treated control and As is the optical density of the tested material.
The effects of analogs 1–13 on ABTS (2,2′-azino-bis(3-ethylbenzothiazoline-6-sulfonic acid)) free radical scavenging activity were investigated using trolox as a positive reference control. The concentrations of the analogs and trolox in the test samples were 100 µM. The free radical scavenging activities were assessed by measuring the optical densities at 734 nm after standing in the dark for 2 min. […] Analogs 7–10, with no hydroxyl groups on the β-phenyl ring, had weak ABTS and DPPH radical scavenging activities.

[4] = DPPH radical scavenging activity assay; details: 1 mM, 30 min in the dark
Procedure: The effects of the (Z)-BPTT analogs 1–13 on DPPH radical scavenging activities were investigated as previously described with slight modification. Briefly, 180 μL of 0.2 mM DPPH in methanol was added to 96-well plates and then 20 μL of one of the (Z)-BPTT analogs 1–13 (10 mM in DMSO) or the positive control (10 mM L-ascorbic acid in distilled water) was added and mixed. The 96-well plates were incubated in the dark for 30 min and then the well optical densities were measured at 517 nm using a VersaMax™ microplate reader (Molecular Devices, Sunnyvale, CA, USA). All of these experiments were performed independently in triplicate. The DPPH radical scavenging activities of the analogs were calculated using the following formula:Scavenging activity (%) = (Ac − As) × 100/Ac where Ac is the optical density of the non-treated control and As is the optical density of the tested material.
The DPPH (2,2-diphenyl-1-picrylhydrazyl) radical scavenging abilities of the (Z)-BPTT analogs were investigated using L-ascorbic acid (vitamin C) as a positive control. The final concentrations of the analogs and of the positive control in the test samples and in the DPPH methanol solution were 1 and 0.18 mM, respectively. The scavenging activities of the analogs were assessed by measuring their optical densities at 517 nm after standing the samples in the dark for 30 min.

[5] = target: T1, mushroom tyrosinase (Agaricus bisporus, UniProt C7FF04); assay: Mushroom tyrosinase inhibition assay (L-tyrosine substrate); format: biochemical; details: L-tyrosine substrate; means ± SEMs of triplicate determinations
T1 construct: purchased Sigma-Aldrich
T1 sequence (C7FF04 1-392 limits assumed): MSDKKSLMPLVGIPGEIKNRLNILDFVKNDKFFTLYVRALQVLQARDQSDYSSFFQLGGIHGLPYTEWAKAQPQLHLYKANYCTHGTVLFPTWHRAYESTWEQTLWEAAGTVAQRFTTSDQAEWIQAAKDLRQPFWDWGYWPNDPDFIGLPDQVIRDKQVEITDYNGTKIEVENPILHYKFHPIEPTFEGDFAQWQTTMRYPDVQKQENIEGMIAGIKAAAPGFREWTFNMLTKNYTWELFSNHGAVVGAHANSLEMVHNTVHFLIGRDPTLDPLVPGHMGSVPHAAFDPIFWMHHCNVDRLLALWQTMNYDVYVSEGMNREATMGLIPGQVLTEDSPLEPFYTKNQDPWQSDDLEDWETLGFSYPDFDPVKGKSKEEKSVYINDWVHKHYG
Procedure: In order to examine the inhibitory effect of the (Z)-BPTT analogs on tyrosinase activity, commercially available mushroom tyrosinase (Sigma-Aldrich, St. Louis, MO, USA) was used. The mushroom tyrosinase-inhibitory activities of the analogs were determined as described previously with modification. Briefly, 20 µL (20 units) of an aqueous mushroom tyrosinase solution was added to each well of a 96-well microplate containing 170 µL of a substrate mixture consisting of 345 μM of L-tyrosine solution, 17.2 mM phosphate buffer (pH 6.5), and 10 µL of a (Z)-BPTT analog solution at different concentrations or 10 µL of a kojic acid solution (2, 10, or 50 μM). After incubating the assay mixtures for 30 min at 37 °C, the remaining tyrosinase activities were calculated from the amounts of dopachrome that were formed as determined by measuring their absorbance at 492 nm using a microplate reader (VersaMax™, Molecular Devices, Sunnyvale, CA, USA). The curves of the IC50 values that were derived from the X-axis of the inhibitor concentration versus the amount of product that was produced were determined by aligning the dose–response curve with the Y-axis. Inhibition experiments were performed in triplicate using three to six different concentrations of the (Z)-BPTT analogs or kojic acid. Log–linear curves and their equations were determined by using inhibition percentages at three to six analog concentrations. The individual IC50 values were determined by reading the concentrations on the Y-axis at 50% inhibition. The results are the means of three independent experiments.
The tyrosinase-inhibitory activities were screened against mushroom tyrosinase using L-tyrosine as a substrate, as previously described. Kojic acid, a representative tyrosinase inhibitor, was used as a positive control. […]. All 13 of the (Z)-BPTT analogs inhibited tyrosinase activity in a concentration-dependent manner. The IC50 values are shown in Table 2, along with the analog substitutions.

[6] = test system: B16F10 murine melanoma cells; parameters: method as in PMID 34356311; details: ref [32]; cited from earlier work
[7] = test system: B16F10 cells; assay: Melanin content assay in α-MSH plus IBMX-stimulated cells; format: cell-based, murine; details: 48 h, B16F10 cells
Procedure: Briefly, B16F10 cells were seeded at a density of 1 × 10^5 cells per well in 6-well plates and allowed to adhere to the well bases under the same conditions that were used for cell culturing. […] In order to determine the melanin contents, the B16F10 cells that were exposed to α-MSH and IBMX for 48 h were rinsed with PBS twice and incubated in 200 µL of 1 N NaOH solution containing 10% dimethyl sulfoxide (DMSO) for 1 h at 60 °C. The cell lysates were transferred to a 96-well plate and the absorbances at 405 nm were measured using a microplate reader (VersaMax™, Molecular Devices, Sunnyvale, CA, USA). These experiments were performed individually in triplicate. B16F10 cells were seeded in 6-well culture plates and pretreated with analogs 1, 3, and 6 at concentrations of 0, 5, 10, or 20 µM and with analog 2 at 0, 2.5, 5, or 10 µM for 1 h. α-Melanocyte-stimulating hormone (α-MSH; 1 µM) and 3-isobutyl-1-methylxanthine (IBMX; 200 µM) were added sequentially in order to enhance melanin production. After incubation for 48 h at 37 °C, the melanin contents were assessed by measuring the well optical densities at 405 nm using a microplate reader. Kojic acid (10 or 20 µM) was used as a positive control.

COc1ccc(/C=C2\SC(=S)NC2=O)cc1O [5-HMT, (Z)-5-(3-hydroxy-4-methoxybenzylidene)-2-thioxothiazolidin-4-one]
skin effect in vivo [1]: skin-lighting effect | IC50 ([2]; ref [31]): 18.1 ± 1 µM

COc1cc(/C=C2\SC(=S)N(c3ccccc3)C2=O)ccc1O [Analog 4, (Z)-5-(4-Hydroxy-3-methoxybenzylidene)-3-phenyl-2-thioxothiazolidin-4-one]
ABTS free radical scavenging activity [3]: 61.5% | DPPH radical scavenging activity [4]: 78.7% | IC50 [5]: 80 ± 3.3 µM

CCOc1cc(/C=C2\SC(=S)N(c3ccccc3)C2=O)ccc1O [Analog 5, (Z)-5-(3-Ethoxy-4-hydroxybenzylidene)-3-phenyl-2-thioxothiazolidin-4-one]
ABTS free radical scavenging activity [3]: 51.2% | DPPH radical scavenging activity [4]: 77.5% | IC50 [5]: > 200 µM

COc1ccc(/C=C2\SC(=S)N(c3ccccc3)C2=O)cc1 [Analog 7, (Z)-5-(4-Methoxybenzylidene)-3-phenyl-2-thioxothiazolidin-4-one]
IC50 [5]: > 200 µM

COc1ccc(/C=C2\SC(=S)N(c3ccccc3)C2=O)cc1OC [Analog 8, (Z)-5-(3,4-Dimethoxybenzylidene)-3-phenyl-2-thioxothiazolidin-4-one]
IC50 [5]: 94.3 ± 7.7 µM

COc1ccc(/C=C2\SC(=S)N(c3ccccc3)C2=O)c(OC)c1 [Analog 9, (Z)-5-(2,4-Dimethoxybenzylidene)-3-phenyl-2-thioxothiazolidin-4-one]
IC50 [5]: 22.1 ± 4.23 µM

COc1cc(/C=C2\SC(=S)N(c3ccccc3)C2=O)cc(OC)c1OC [Analog 10, (Z)-3-Phenyl-2-thioxo-5-(3,4,5-trimethoxybenzylidene)thiazolidin-4-one]
IC50 [5]: > 200 µM

COc1cc(/C=C2\SC(=S)N(c3ccccc3)C2=O)cc(OC)c1O [Analog 11, (Z)-5-(4-Hydroxy-3,5-dimethoxybenzylidene)-3-phenyl-2-thioxothiazolidin-4-one]
ABTS free radical scavenging activity [3]: 57.2% | IC50 [5]: > 200 µM

O=C1/C(=C/c2ccc(O)c(Br)c2)SC(=S)N1c1ccccc1 [Analog 12, (Z)-5-(3-Bromo-4-hydroxybenzylidene)-3-phenyl-2-thioxothiazolidin-4-one]
ABTS free radical scavenging activity (in words) [3]: did not influence | IC50 [5]: 65.5 ± 9.4 µM

O=C1/C(=C/c2cc(Br)c(O)c(Br)c2)SC(=S)N1c1ccccc1 [Analog 13, (Z)-5-(3,5-Dibromo-4-hydroxybenzylidene)-3-phenyl-2-thioxothiazolidin-4-one]
ABTS free radical scavenging activity (in words) [3]: slightly decreased | IC50 [5]: 78.8 ± 8.63 µM

O=c1/c(=C/c2ccc(O)cc2O)sc2nc3ccccc3n12 [Compound I, (Z)-2-(2,4-dihydroxybenzylidene)benzo[4,5]imidazo[2,1-b]thiazol-3(2H)-one]
IC50 ([2]; ref [32]): 5 ± 0.38 µM | effects in cells [6]: anti-tyrosinase and anti-melanogenic effects

O=C1O[C@H]([C@@H](O)CO)C(O)=C1O [L-ascorbic acid, reference compound]
DPPH radical scavenging activity [4]: 96.9%

O=c1cc(CO)occ1O [kojic acid, reference compound]
reduction of α-MSH plus IBMX-induced increase in melanin content ([7]; 10 µM): 21.8% | reduction of α-MSH plus IBMX-induced increase in melanin content ([7]; 20 µM): 22.9%

Cc1c(C)c2c(c(C)c1O)CCC(C)(C(=O)O)O2 (stereo not drawn) [trolox, reference compound]
ABTS free radical scavenging activity [3]: 99.8%
